The assay has as its system L1210 leukemia ip in BDF1 mice, survival T/C. In words: NCI In Vivo Anticancer Drug Screen. Data for tumor model L1210 Leukemia (intraperitoneal) in B6D2F1 (BDF1) mice. Conditions: endpoint: mean survival time, higher = longer survival. Summed up: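 Survival endpoint. Drug-treated group vs vehicle group, expressed as T divided by C. Tumor passaged by transplantation.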

The mark [1] stands for this setting: dose: 100.0 mg/kg/injection, schedule: Q01DX001 (ip), vehicle: saline.
The mark [2] stands for this setting: dose: 200.0 mg/kg/injection, schedule: Q01DX001 (ip), vehicle: saline.
The mark [3] stands for this setting: dose: 400.0 mg/kg/injection, schedule: Q01DX001 (ip), vehicle: saline.
The mark [4] stands for this setting: dose: 100.0 mg/kg/injection, schedule: Q04DX003 (ip), vehicle: saline with Tween-80.
Setting [5] is: dose: 200.0 mg/kg/injection, schedule: Q04DX003 (ip), vehicle: saline with Tween-80.
[6] abbreviates: dose: 400.0 mg/kg/injection, schedule: Q04DX003 (ip), vehicle: saline with Tween-80.
Setting [7] is: dose: 100.0 mg/kg/injection, schedule: Q01DX009 (ip), vehicle: Klucel (hydroxypropylcellulose) (HPC).
The mark [8] stands for this setting: dose: 200.0 mg/kg/injection, schedule: Q01DX009 (ip), vehicle: Klucel (hydroxypropylcellulose) (HPC).
[9] abbreviates: dose: 6.25 mg/kg/injection, schedule: Q01DX009 (ip), vehicle: Klucel (hydroxypropylcellulose) (HPC).
[10] abbreviates: dose: 12.5 mg/kg/injection, schedule: Q04DX003 (ip), vehicle: Klucel (hydroxypropylcellulose) (HPC).
Setting [11] is: dose: 100.0 mg/kg/injection, schedule: Q01DX001 (ip), vehicle: carboxymethylcellulose (CMC).
Where [12] appears, read: dose: 200.0 mg/kg/injection, schedule: Q01DX001 (ip), vehicle: carboxymethylcellulose (CMC).
[13] abbreviates: dose: 400.0 mg/kg/injection, schedule: Q01DX001 (ip), vehicle: carboxymethylcellulose (CMC).
Setting [14] is: dose: 400.0 mg/kg/injection, schedule: Q01DX009 (ip), vehicle: Klucel (hydroxypropylcellulose) (HPC).

SMILES strings stand for the structures. Values joined by “and” are separate entries in the source; they are usually repeats but may differ in a detail not shown here. Equal entries are not always repeated. Inconclusive results and toxic doses are left out.

For `O=c1c(Cl)c(C(Cl)(Cl)Cl)n(O)c2ccccc12`, the T/C (dose: 6.25 mg/kg/injection, schedule: Q01DX001 (ip), vehicle: Klucel (hydroxypropylcellulose) (HPC)) is 104 % of control; the T/C (dose: 12.5 mg/kg/injection, schedule: Q01DX001 (ip), vehicle: Klucel (hydroxypropylcellulose) (HPC)) was 104 % of control; the T/C (dose: 25.0 mg/kg/injection, schedule: Q01DX001 (ip), vehicle: Klucel (hydroxypropylcellulose) (HPC)) was 98 % of control; the T/C (dose: 50.0 mg/kg/injection, schedule: Q01DX001 (ip), vehicle: Klucel (hydroxypropylcellulose) (HPC)) was 103 % of control; the T/C (dose: 100.0 mg/kg/injection, schedule: Q01DX001 (ip), vehicle: Klucel (hydroxypropylcellulose) (HPC)) was 95 % of control.

For the molecule `O=S(=O)(Cc1ccccc1)/C(=C\c1ccccc1)c1ccccc1`, the T/C by setting is: (dose: 50.0 mg/kg/injection, schedule: Q01DX001 (ip), vehicle: saline) 105 % of control; under setting [1], 105 % of control; under setting [2], 105 % of control; under setting [3], 103 % of control.

As to `CCOC(=O)C1C(=O)NC(=O)CC1C` (centres undefined), the T/C runs as follows: under setting [4], 98 % of control; (dose: 200.0 mg/kg/injection, schedule: Q01DX009 (ip), vehicle: saline with Tween-80) 100 % of control; under setting [5], 96 % of control; (dose: 400.0 mg/kg/injection, schedule: Q01DX009 (ip), vehicle: saline with Tween-80) 101 % of control; under setting [6], 104 % of control.

For the molecule `O=[N+]([O-])c1cccc(S(=O)(=O)OCC2CO2)c1` (centres undefined), the T/C reads like this: under setting [7], 98 % of control; under setting [8], 104 % of control.

As for `COC(=O)C(=O)CC(=O)c1cccc(C)c1`, the T/C is 100 % of control (dose: 100.0 mg/kg/injection, schedule: Q04DX002 (ip), vehicle: Klucel (hydroxypropylcellulose) (HPC)); 103 % of control (dose: 200.0 mg/kg/injection, schedule: Q04DX002 (ip), vehicle: Klucel (hydroxypropylcellulose) (HPC)); 92 % of control (dose: 400.0 mg/kg/injection, schedule: Q04DX002 (ip), vehicle: Klucel (hydroxypropylcellulose) (HPC)).

In the case of `C#CC[As+](c1ccccc1)(c1ccccc1)c1ccccc1`, the T/C under setting [9] is 103 % of control and the T/C under setting [10] is 102 % of control.

With `CNC(=O)Oc1ccccc1-c1ccccc1`, the T/C under setting [11] is 100 % of control, the T/C under setting [12] is 100 % of control and the T/C under setting [13] was 96 % of control.

Turning to `O=C(O)c1cc(=O)n2c3c(cccc13)CCC2`, the T/C is 101 % of control (dose: 50.0 mg/kg/injection, schedule: Q04DX003 (ip), vehicle: saline with Tween-80); 104 % of control under setting [4]; 90 % of control under setting [5].

As for `CN1C(=O)c2ccccc2NC(=O)C12OC2c1ccccc1` (centres undefined), the T/C is, setting by setting: under setting [1], 101 % of control; under setting [2], 101 % of control; under setting [3], 97 % of control.

Consider `Nc1ccc2c(c1)[nH]c(=O)c1cc(Br)ccc12`, for which the T/C is 104 % of control under setting [11], 100 % of control under setting [12] and 102 % of control under setting [13].

For `O=C(O)CNC1CSSC1`, the T/C runs as follows: (dose: 25.0 mg/kg/injection, schedule: Q01DX009 (ip), vehicle: water) 106 % of control; (dose: 50.0 mg/kg/injection, schedule: Q01DX009 (ip), vehicle: water) 106 % of control.

As for `CC(C)(C)c1cccc(Cl)c1O`, the T/C (dose: 25.0 mg/kg/injection, schedule: Q01DX009 (ip), vehicle: saline with Tween-80) is 102 % of control; the T/C (dose: 50.0 mg/kg/injection, schedule: Q01DX009 (ip), vehicle: saline with Tween-80) was 93 % of control; the T/C (dose: 100.0 mg/kg/injection, schedule: Q01DX009 (ip), vehicle: saline with Tween-80) is 96 % of control and 98 % of control.

In the case of `C/C(CC(O)(C(F)(F)F)C(F)(F)F)=N\Nc1ccccc1`, the T/C is 102 % of control (dose: 100.0 mg/kg/injection, schedule: Q04DX003 (ip), vehicle: other); 97 % of control (dose: 200.0 mg/kg/injection, schedule: Q04DX003 (ip), vehicle: other); 106 % of control (dose: 400.0 mg/kg/injection, schedule: Q04DX003 (ip), vehicle: other).

In the case of `CCOC(=N)CC(O)C(Cl)(Cl)Cl` (centres undefined), the T/C is 99 % of control (dose: 100.0 mg/kg/injection, schedule: Q04DX002 (ip), vehicle: saline with Tween-80); 103 % of control (dose: 200.0 mg/kg/injection, schedule: Q04DX002 (ip), vehicle: saline with Tween-80); 92 % of control (dose: 400.0 mg/kg/injection, schedule: Q04DX002 (ip), vehicle: saline with Tween-80).

With `COC1OC(CO)C(O)C1n1cnc2c(SC)ncnc21` (centres undefined), the T/C is 107 % of control (dose: 100.0 mg/kg/injection, schedule: Q04DX002 (ip), vehicle: saline) and 104 % of control (dose: 200.0 mg/kg/injection, schedule: Q04DX002 (ip), vehicle: saline).

For the molecule `S=C=NCC(Br)CBr` (centres undefined), the T/C was 104 % of control under setting [9]; 103 % of control (dose: 12.5 mg/kg/injection, schedule: Q01DX009 (ip), vehicle: Klucel (hydroxypropylcellulose) (HPC)); 95 % of control under setting [10]; 87 % of control (dose: 25.0 mg/kg/injection, schedule: Q01DX009 (ip), vehicle: Klucel (hydroxypropylcellulose) (HPC)); 105 % of control (dose: 25.0 mg/kg/injection, schedule: Q04DX003 (ip), vehicle: Klucel (hydroxypropylcellulose) (HPC)).

For `CCc1ccc(NS(=O)(=O)c2ccc(OC)cc2)cc1`, the T/C is, setting by setting: under setting [7], 102 % of control; under setting [8], 100 % of control; under setting [14], 109 % of control.

Consider `Cc1cc(N(CCOS(C)(=O)=O)CCOS(C)(=O)=O)ccc1C=Nc1ccc(-c2csc(-c3ccc(Br)cc3)n2)cc1`, for which the T/C is, setting by setting: (dose: 100.0 mg/kg/injection, schedule: Q01DX009 (ip), vehicle: saline) 109 % of control; (dose: 100.0 mg/kg/injection, schedule: Q04DX003 (ip), vehicle: Klucel (hydroxypropylcellulose) (HPC)) 150 % of control; (dose: 150.0 mg/kg/injection, schedule: Q01DX009 (ip), vehicle: saline) 101 % of control; (dose: 200.0 mg/kg/injection, schedule: Q04DX003 (ip), vehicle: Klucel (hydroxypropylcellulose) (HPC)) 91 % of control.

`Cc1cccc[n+]1Cc1ccccc1`: the T/C is 100 % of control (dose: 9.38 mg/kg/injection, schedule: Q01DX001 (ip), vehicle: saline); 97 % of control (dose: 18.75 mg/kg/injection, schedule: Q01DX001 (ip), vehicle: saline); 101 % of control (dose: 37.5 mg/kg/injection, schedule: Q01DX001 (ip), vehicle: saline).

As for `COc1ccc(NC(=O)Nc2cccc(O)c2)c(OC)c1`, the T/C reads like this: under setting [7], 100 % of control; under setting [8], 96 % of control; under setting [14], 100 % of control.

Turning to `CCNC(=O)Nc1ccc(C(=O)O)c(O)c1` (tested in a mixture with another compound), the T/C runs as follows: under setting [4], 97 % of control; (dose: 100.0 mg/kg/injection, schedule: Q04DX003 (sc), vehicle: olive oil, sesame oil, peanut oil) 97 % of control; under setting [5], 92 % of control; (dose: 200.0 mg/kg/injection, schedule: Q04DX003 (sc), vehicle: olive oil, sesame oil, peanut oil) 102 % of control; under setting [6], 102 % of control; (dose: 400.0 mg/kg/injection, schedule: Q04DX003 (sc), vehicle: olive oil, sesame oil, peanut oil) 97 % of control.

`CC(=O)C1=CC[C@H]2[C@@H]3CCC4=CC(=O)CC[C@]4(C)[C@H]3C(=O)C[C@]12C`: the T/C reads like this: (dose: 50.0 mg/kg/injection, schedule: Q01DX Z (sc), vehicle: steriod suspending solution) 102 % of control; (dose: 250.0 mg/kg/injection, schedule: Q01DX Z (sc), vehicle: steriod suspending solution) 101 % of control; (dose: 500.0 mg/kg/injection, schedule: Q01DX Z (sc), vehicle: steriod suspending solution) 102 % of control.

`c1ccc2c(c1)cc1ccc3cc4ccccc4c4ccc2c1c34`: the T/C reads like this: (dose: 50.0 mg/kg/injection, schedule: Q01DX009 (ip), vehicle: acetone) 110 % of control; under setting [11], 100 % of control; (dose: 100.0 mg/kg/injection, schedule: Q01DX009 (ip), vehicle: acetone) 105 % of control; under setting [12], 100 % of control; (dose: 200.0 mg/kg/injection, schedule: Q01DX009 (ip), vehicle: acetone) 107 % of control; under setting [13], 100 % of control.
